{
  "source": "patent US9844521B2",
  "about": "“Pharmaceutical composition comprising ginger extract or shogaol” (UNIVERSITY-INDUSTRY COOPERATION GROUP OF KYUNG HEE …, priority 2008, dated 2017)",
  "key": {"PC12 cells": {"test_system": "PC12 cells", "experiment": "Neurite outgrowth of PC12 cells treated with conditioned media of C6 cells", "assay_type": "cell-based, mouse", "details": "20 μM in C6 conditioned media, microscope, fourth day after treatment", "procedure": "This test was performed using a glioma C6 cell line of […] which is known as a cell line that secretes a nerve growth factor (NGF), and a pheochromocytoma PC12 cell line of […] which is known as a cell line that grows neurite with respect to an NGF in a similar way as a neuron. C6 cells and PC12 cells were obtained from Korean Cell Line Bank (KCLB Nos. 10107 and 21721, respectively). C6 cells were cultured using DMEM media (Gibco BRL, USA) supplemented with 3.4 g/L of sodium bicarbonate (NaHCO3), 10% fetal bovine serum, and 1% penicillin-streptomycin antibiotics (10000 U/ml), and PC12 cells were cultured using RPMI1640 medium (Gibco BRL, USA) supplemented with 2.0 g/L of sodium bicarbonate, 10% horse serum, 5% fetal bovine serum, and 1% penicillin-streptomycin antibiotics (10000 U/ml). […]\nC6 cells attached to a 100 mm culture vessel were separated from the culture vessel by using 0.25% Trypsin-EDTA (Gibco BRL, USA), and then 10 ml of fresh medium was added to the cells to prepare a cell suspension. Then, the number of viable cells was counted and calculated by using a cell number counter. The cells were divided based on the counted cell number such that 2×10^6 cells were contained in a 100 mm culture dish. […]"}, "C6 cells": {"test_system": "C6 cells", "experiment": "Nerve growth factor secretion induction in C6 cells (NGF measurement kit)", "assay_type": "cell-based, mouse", "details": "conditioned media of C6 cells, mean±standard deviation", "procedure": "This test was performed using a glioma C6 cell line of […] which is known as a cell line that secretes a nerve growth factor (NGF), and a pheochromocytoma PC12 cell line of […] which is known as a cell line that grows neurite with respect to an NGF in a similar way as a neuron. C6 cells and PC12 cells were obtained from Korean Cell Line Bank (KCLB Nos. 10107 and 21721, respectively). C6 cells were cultured using DMEM media (Gibco BRL, USA) supplemented with 3.4 g/L of sodium bicarbonate (NaHCO3), 10% fetal bovine serum, and 1% penicillin-streptomycin antibiotics (10000 U/ml), and PC12 cells were cultured using RPMI1640 medium (Gibco BRL, USA) supplemented with 2.0 g/L of sodium bicarbonate, 10% horse serum, 5% fetal bovine serum, and 1% penicillin-streptomycin antibiotics (10000 U/ml). The fetal bovine serum and the horse serum were inactivated at a temperature of 55[…] for 30 minutes before use, and all of the cells were cultured in a cell culture vessel with a humidity of 70% at a temperature of 37[…] to which 5% carbon dioxide was supplied. Regarding the PC12 cells, the cells were cultured in a culture vessel that was surface-coated with poly-D-lysine (Sigma) diluted with 50 μg/ml of a PBS buffer solution (pH 7.2) for 1 hour and then washed three times with a PBS buffer solution. Shogaol used was obtained from WAKO Company (Japan).\nC6 cells attached to a 100 mm culture vessel were separated from the culture vessel by using 0.25% Trypsin-EDTA (Gibco BRL, USA), and then 10 ml of fresh medium was added to the cells to prepare a cell suspension. Then, the number of viable cells was counted and calculated by using a cell number counter. The cells were divided based on the counted cell number such that 2×10^6 cells were contained in a 100 mm culture dish. After 24 hours of cultivation, the used media was removed and replaced with 10 ml of a DMEM medium containing 2% fetal bovine serum, to which 100 ug/ml of each of the ethanol extract, the n-hexane fraction, the ethyl acetate fraction, the n-butanol fraction, and the water fraction prepared according to Example 1 was added. After 24 hours of cultivation, the respective media were obtained. The obtained media were centrifuged at a rate of 1500 rpm for 10 minutes and then a supernatant was collected, and these media (conditioned media) were used to treat PC12 cells.\nThe C6 cells were divided and treated with 0.1, 1, 5, 10, and 20 μM of shogaol in the same manner as in Experimental Example 1-1 to prepare conditioned media.\nA nerve growth factor secreted from C6 cells by shogaol was quantified by treating a nerve growth factor measurement kit (DY556, R&D system, USA) with the conditioned media. In order to identify an effect of shogaol on nerve growth factor secretion induction, a nerve growth factor in the conditioned media prepared by culturing C6 cells after the cells were treated with shogaol was quantified and the results are shown in FIG. 2."}, "E. coli WP2 uvrA": {"test_system": "E. coli WP2 uvrA", "experiment": "Back mutation test (genotoxicity in bacteria), E. coli strain", "details": "compared with negative control", "procedure": "In order to evaluate genotoxicity in bacteria, a back mutation test was performed using histidine-requiring salmonella typhimurium strains (TA 100, TA 1535, TA 98, and TA 1537) and an E. coli strain (E. coli WP2 uvrA). As a result, a positive control has a substantially greater colony number than a negative control. […] Accordingly, it was confirmed that the ginger extract and shogaol all had stability in the genotoxicity test."}, "SD rats": {"test_system": "SD rats", "experiment": "Acute toxicity test", "details": "0.1 mg/10 ml/kg to 5000 mg/10 ml/kg, 2 weeks"}},
  "data": [
    {"smiles": "CCCCC/C=C/C(=O)CCc1ccc(O)c(OC)c1", "note": "[shogaol, (E)-1-(4-hydroxy-3-methoxyphenyl)dec-4-en-3-one]", "values": [
      {"measurement": "growth of neurite of the PC12 cells", "setting": "PC12 cells", "value": "increased"},
      {"measurement": "secretion amount of a nerve growth factor", "setting": "C6 cells; 0.1 μM", "value": "105.46±7.27 % of a control"},
      {"measurement": "secretion amount of a nerve growth factor", "setting": "C6 cells; 1 μM", "value": "112.72±3.67 % of a control"},
      {"measurement": "secretion amount of a nerve growth factor", "setting": "C6 cells; 5 μM", "value": "112.97±4.97 % of a control"},
      {"measurement": "secretion amount of a nerve growth factor", "setting": "C6 cells; 10 μM", "value": "119.44±5.18 % of a control"},
      {"measurement": "secretion amount of a nerve growth factor", "setting": "C6 cells; 20 μM", "value": "124.81±5.61 % of a control"},
      {"measurement": "colony number (back mutation)", "setting": "E. coli WP2 uvrA", "value": "the colony number was not increased"},
      {"measurement": "body weight", "setting": "SD rats", "value": "weight change with respect to a test material did not occur"},
      {"measurement": "general symptom", "setting": "SD rats", "value": "abnormal symptoms with respect to a test material were not found"}
    ]}
  ]
}
